In patent US20260224566A1, “Obicetrapib and Ezetimibe Combination Treatment and Fixed Dose Pharmaceutical Compositions” (NewAmsterdam Pharma B.V., priority 2023, published 2026):
Counter-ions that a name gives are not always drawn.

Tests used:
[1] = tested on: patients with hypercholesterolemia; settings: cited from earlier work
[2] = tested on: ApoE*3-Leiden.CETP transgenic mice; assay: Example 12: plasma lipids, VLDL clearance, LDL receptor, fecal and biliary sterols in ApoE*3-Leiden.CETP mice; type: in vivo, mouse
Source text: Obicetrapib is a selective cholesteryl ester transfer protein (CETP) inhibitor currently in clinical development for the treatment of hypercholesterolemia and reduction of cardiovascular risk that strongly reduces Apolipoprotein B (ApoB) and low-density lipoprotein cholesterol (LDL-C) and concomitantly increases plasma high-density lipoprotein cholesterol (HDL-C). Ezetimibe reduces absorption of biliary and dietary cholesterol from the small intestine, thereby reducing LDL-C levels. The current study was carried out to elucidate the mechanism of action responsible for the observed decrease in non-HDL-C by obicetrapib monotherapy and in combination with ezetimibe in a translational mouse model for hyperlipidemia and atherosclerosis.
(§1) The experimental protocol is illustrated in FIG. 71, with time (t) measured in weeks. Female ApoE*3-Leiden.CETP transgenic mice were fed a Western diet with 0.05% w/w cholesterol (equivalent to daily human intake) with (i) no drug (control), or the same diet containing (ii) obicetrapib alone (2 mg/kg/day), (iii) ezetimibe alone (1 mg/kg/day) or (iv) the combination of obicetrapib and ezetimibe. In the experiment, the effects of the treatments on, amongst other things, plasma blood lipids and fecal bile acids and sterols were determined.

[3] = tested on: ApoE*3-Leiden.CETP transgenic mice; assay: Example 13: plasma cholesterol and atherosclerosis development in aortic root of ApoE*3-Leiden.CETP mice; type: in vivo, mouse
Procedure: The current study was carried out to evaluate the effect of obicetrapib monotherapy and a combination of obicetrapib+ezetimibe on atherosclerosis development in a translational mouse model for hyperlipidemia and atherosclerosis.
as §1, with “82,” for “71,”, “(on average 0.6” for “(1”, “ezetimibe.” for “ezetimibe. In the experiment, the effects of the treatments on, amongst other things, plasma blood lipids and fecal bile acids and sterols were determined.”

[4] = cited from earlier work
[5] = tested on: participants currently receiving high-intensity statin therapy; assay: ROSE2 Phase 2b clinical trial: LDL-C and other lipid efficacy endpoints; type: in vivo, human; settings: ROSE2; ezetimibe 10 mg on top of obicetrapib 10 mg
Procedure: The primary objective of this study is to evaluate the effect of obicetrapib 10 mg+ezetimibe 10 mg combination therapy compared with placebo, when used as an adjunct to high-intensity statin therapy, on LDL-C at Day 84.
The secondary objectives of this study include the following, in hierarchical order: • To evaluate the effect of obicetrapib 10 mg monotherapy compared with placebo, when used as an adjunct to high-intensity statin therapy, on LDL-C at Day 84; • To evaluate the effect of obicetrapib 10 mg+ezetimibe 10 mg combination therapy compared with placebo, when used as an adjunct to high-intensity statin therapy, on ApoB at Day 84; and • To evaluate the effect of obicetrapib 10 mg monotherapy compared with placebo, when used as an adjunct to high-intensity statin therapy, on ApoB at Day 84.
This study will be a placebo-controlled, double-blind, randomized, Phase 2 study to evaluate the efficacy, safety, and tolerability of obicetrapib 10 mg, both in combination with ezetimibe 10 mg and as monotherapy, as an adjunct to high-intensity statin therapy. This study will take place at approximately 20 sites in the United States.
Up to 2 weeks after the Screening Visit, participants will return to the site on Day 1 (Visit 2) and confirm study eligibility before being randomized and beginning treatment. Approximately 114 eligible participants (38 participants per treatment group) will be randomized in a 1:1:1 ratio to 1 of the following treatment groups: • Combination therapy: Obicetrapib 10 mg+ezetimibe 10 mg (administered as one 10 mg obicetrapib tablet and one 10 mg ezetimibe capsule); • Obicetrapib monotherapy: Obicetrapib 10 mg (administered as one 10 mg obicetrapib tablet and 1 placebo capsule); or. • Placebo (administered as 1 placebo tablet and 1 placebo capsule).
During the 12-week Treatment Period, the assigned study drugs will be administered by the participants orally with water, once daily on Day 1 to Day 84 at approximately the same time each morning. Participants will return to the site on Day 28 (±2 days), Day 84 (±2 days), and Day 112 (±2 days) for efficacy, safety, and pharmacokinetic (PK) assessments. Participants, Investigators, the Clinical Research Organization (CRO), and the Sponsor will be blinded to all lipid results from Day 1 (Visit 2) for the first participant until all enrolled participants complete the Day 84 (End of Treatment) visit or are withdrawn from the study, in order to protect blinding to treatment assignment.
The primary efficacy endpoint is the percent change from Day 1 to Day 84 in LDL-C for the obicetrapib 10 mg+ezetimibe 10 mg combination treatment group compared with the placebo group.
The secondary efficacy endpoints include the following, in hierarchical order: • Percent change from Day 1 to Day 84 in LDL-C for the obicetrapib 10 mg monotherapy. • treatment group compared with the placebo group; • Percent change from Day 1 to Day 84 in ApoB for the obicetrapib 10 mg+ezetimibe 10 mg • combination treatment group compared with the placebo group; and • Percent change from Day 1 to Day 84 in ApoB for the obicetrapib 10 mg monotherapy treatment group compared with the placebo group.
The exploratory efficacy endpoints include the following: • Percent change from Day 1 to Day 84 in non-HDL-C, VLDL-C, HDL-C, TG, ApoE, Lp(a), and HDL-ApoE for the obicetrapib 10 mg+ezetimibe 10 mg combination treatment group compared with the placebo group and for the obicetrapib 10 mg monotherapy treatment group compared with the placebo group; and • Proportion of participants at Day 84 that achieve LDL-C <2.6 mmol/L (<100 mg/dL), LDL-C <1.8 mmol/L (<70 mg/dL), and LDL-C <1.3 mmol/L (<50 mg/dL) for the obicetrapib 10 mg+ezetimibe 10 mg combination treatment group compared with the placebo group and for the obicetrapib 10 mg monotherapy treatment group compared with the placebo group. […]

[6] = Stability study at 70° C./75% RH, open vial (physical stability by XRPD, chemical purity by HPLC); type: physicochemical; settings: 75% relative humidity
Source text: FIG. 54 is a plot of x-ray powder diffraction pattern taken of crystalline obicetrapib hemicalcium, and FIG. 55 is a plot of x-ray powder diffraction patterns taken of crystalline obicetrapib hemicalcium under stress conditions. In FIG. 55, there are four diffraction patterns shown based on stability study set forth in Example 11.27. Pattern 1 is an x-ray powder diffraction pattern of a sample of amorphous obicetrapib hemicalcium. Pattern 2 is the x-ray powder diffraction pattern of a sample of crystalline obicetrapib hemicalcium. In pattern 3, the sample of crystalline obicetrapib hemicalcium was exposed to 70° C. at 75% relative humidity for one day. […] Pattern 1 was taken before the sample was placed on stability.
Stability study was conducted on crystalline and amorphous forms of obicetrapib at 70° C./75% relative humidity (RH). The solids were placed into a 4.0 ml glass vial without caps (open condition) and stored at 70° C./75% RH. […] The solids were analyzed by XRPD for physical stability and by HPLC for chemical purity. The sample collected at each time point was dissolved in methanol before HPLC analysis. In order to minimize the effect of potential analyte adsorption on the filter, the initial 0.5 mL of supernatant passing through the filter was discarded prior to collecting sample for HPLC analysis. Purity for each sample was determined based on peak area percent and compared to the sample at T=0.

[7] = Kinetic solubility in FeSSIF (pH 5.0) at 37° C.; type: physicochemical; settings: as obicetrapib free acid
Source text: (§2) The amorphous form has a higher kinetic solubility and dissolution rate than the crystalline form (and by extension obicetrapib itself). Both crystalline and amorphous obicetrapib hemicalcium kinetic solubility determinations were made in biorelevant media at different pHs, namely at about 5.0 (FeSSIF conditions) and at pH of about 6.5 (FaSSIF) conditions as set forth in Example 11.28.
The concentrations in Table W are those of obicetrapib (i.e., the free acid).
(§3) The solids were magnetically stirred at 600 RPM in a shaker bath and samples were drawn with a 1.0 ml syringe at T=15 mins, 30 mins, 60 mins, 90 mins and 120 mins. The solubility was measured using HPLC method provided by the client. The compound was added to 4.0 ml glass vials at approximately 20.0 mg/ml. Samples were agitated with a vortex mixer for about 5 minutes to ensure the presence of undissolved excess powder. The sample collected at each time point was centrifuged at 1200 RPM, filtered with 0.45 μm Polytetrafluoroethylene (PTFE) filters and diluted with methanol before HPLC analysis. In order to minimize the effect of potential analyte adsorption on the filter, the initial 0.5 mL of supernatant passing through the filter was discarded prior to collecting sample for HPLC analysis.

[8] = Kinetic solubility in FaSSIF (pH 6.5) at 37° C.; type: physicochemical; settings: as obicetrapib free acid
Source text: as §2
The concentrations in Table X are those of obicetrapib (i.e., the free acid).
as §3

[9] = obicetrapib 2 mg/kg/day, ezetimibe 1 mg/kg/day in Western diet
[10] = obicetrapib 2 mg/kg/day, ezetimibe on average 0.6 mg/kg/day in Western diet
[11] = 15 mins, listed as Amorphous obicetrapib hemicalcium Batch #1
[12] = 15 mins, listed as Amorphous obicetrapib hemicalcium Batch #2
[13] = 30 mins, listed as Amorphous obicetrapib hemicalcium Batch #1
[14] = 30 mins, listed as Amorphous obicetrapib hemicalcium Batch #2
[15] = 60 mins, listed as Amorphous obicetrapib hemicalcium Batch #1
[16] = 60 mins, listed as Amorphous obicetrapib hemicalcium Batch #2
[17] = 90 mins, listed as Amorphous obicetrapib hemicalcium Batch #1
[18] = 90 mins, listed as Amorphous obicetrapib hemicalcium Batch #2
[19] = 120 mins, listed as Amorphous obicetrapib hemicalcium Batch #1
[20] = 120 mins, listed as Amorphous obicetrapib hemicalcium Batch #2

In the case of `O=C1[C@H](CC[C@H](O)c2ccc(F)cc2)[C@@H](c2ccc(O)cc2)N1c1ccc(F)cc1` [ezetimibe, (3R,4S)-1-(4-fluorophenyl)-3-[(3S)-3-(4-fluorophenyl)-3-hydroxypropyl]-4-(4-hydroxyphenyl)azetidin-2-one], the “incremental reduction in LDL-C levels in combination with statins” value ([1]; Catapano et al. 2016) is given as 15-20%, the “LDL-C reduction typical with ezetimibe mono-therapy” value ([1]; hyperlipidemic patients, Catapano et al. 2016) is given as 15-22% and the “greater reduction in LDL-C, statin and ezetimibe in combination compared with statin alone” value ([1]; meta-analysis of 27 studies, more than 21,000 patients) is given as 15.1%. For the same compound, the “biliary bile acids and biliary bile acid flow” value ([2]; not shown) was “did not affect”, the biliary cholesterol flow ([2]; not shown) was “no significant effects” and the biliary cholesterol levels ([2]; not shown) was “decreased”. The “biliary phospholipids and biliary phospholipid flow” value ([2]; not shown) was “did not affect”, the “fecal neutral sterol excretion, change” value [2, 9] was “+68%” and the “half-life of VLDL-like particles, change” value [2, 9] was −23%. The “non-HDL-C levels, change” value [2, 9] was −24%, the “total plasma cholesterol levels, change” value [2, 9] was −23% and the HDL-cholesterol ([3]; FIG. 84B) was “no increase”. For the same compound, the “severe lesions (types IV-V), change” value ([3]; aortic root, 28 weeks of treatment) was −31%, the “total atherosclerotic lesion size, change” value ([3]; aortic root, 28 weeks of treatment, versus control) was −50% and the “non-HDL-C levels, change” value [3, 10] was −19%. For the same compound, the “total plasma cholesterol levels, change” value [3, 10] was −19%, the lesion number ([3]; versus control animals, FIG. 90B) was “no reduction” and the solubility in water [4] was “practically insoluble”. For the same compound, the “additional/incremental (median) reduction of LDL-C of ezetimibe added on top of obicetrapib” value [5] was “about 32%”.
With `CCOC(=O)N1c2ccc(C(F)(F)F)cc2[C@@H](N(Cc2cc(C(F)(F)F)cc(C(F)(F)F)c2)c2ncc(OCCCC(=O)[O-])cn2)C[C@H]1CC.CCOC(=O)N1c2ccc(C(F)(F)F)cc2[C@@H](N(Cc2cc(C(F)(F)F)cc(C(F)(F)F)c2)c2ncc(OCCCC(=O)[O-])cn2)C[C@H]1CC.[Ca+2]` [crystalline obicetrapib hemicalcium, reference compound] the “physical stability by XRPD” value ([6]; 7 days) was “the result remains the same” and the “physical stability by XRPD” value ([6]; one day) was “near total loss of crystallinity”.
In the case of `CCOC(=O)N1c2ccc(C(F)(F)F)cc2[C@@H](N(Cc2cc(C(F)(F)F)cc(C(F)(F)F)c2)c2ncc(OCCCC(=O)O)cn2)C[C@H]1CC` [amorphous obicetrapib hemicalcium, amorphous hemicalcium salt of (2R,4S)-4-{[3,5-bis(trifluoromethyl)benzyl]-[5-(3-carboxypropoxy)pyrimidin-2-yl]amino}-2-ethyl-6-trifluoromethyl-3,4-dihydro-2H-quinoline-1-carboxylic acid ethyl ester], the “physical stability by XRPD” value ([6]; 7 days) is reported as “remained amorphous”, the “physical stability by XRPD” value ([6]; 14 days) is reported as “remained amorphous” and the “Concentration in Solution” value [7, 11] is reported as 520 µg/mL. For the same compound, the “Concentration in Solution” value [7, 12] was 502 µg/mL, the “Concentration in Solution” value [7, 13] was 661 µg/mL and the “Concentration in Solution” value [7, 14] was 618 µg/mL. For the same compound, the “Concentration in Solution” value [7, 15] was 675 µg/mL, the “Concentration in Solution” value [7, 16] was 628 µg/mL and the “Concentration in Solution” value [7, 17] was 696 µg/mL. For the same compound, the “Concentration in Solution” value [7, 18] was 658 µg/mL, the “Concentration in Solution” value [7, 19] was 675 µg/mL and the “Concentration in Solution” value [7, 20] was 642 µg/mL. The “Concentration in Solution” value [8, 11] was 60 µg/mL, the “Concentration in Solution” value [8, 12] was 90 µg/mL and the “Concentration in Solution” value [8, 13] was 99 µg/mL. For the same compound, the “Concentration in Solution” value [8, 14] was 140 µg/mL, the “Concentration in Solution” value [8, 15] was 163 µg/mL and the “Concentration in Solution” value [8, 16] was 229 µg/mL. For the same compound, the “Concentration in Solution” value [8, 17] was 201 µg/mL, the “Concentration in Solution” value [8, 18] was 293 µg/mL and the “Concentration in Solution” value [8, 19] was 244 µg/mL. The “Concentration in Solution” value [8, 20] was 387 µg/mL.
